{"source": "PubChem BioAssay AID1845202", "about": "(Molecular Pharmacology Branch, DTP, NCI, 2023)", "test_system": "DMS 114 tumor spheroids, viability % test/control", "assay": "Anticancer human tumor DMS 114 cell line growth inhibition;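 for all read-outs here: spheroids exposed to compounds for 7 days before read-out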;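 for viability, T/C: luminescence used as a proxy for viable cells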", "conditions": "spheroids with HUVEC and MSC; for viability, T/C: stronger effect = lower value", "text": "Multicellular complex tumor spheroid response to DNA repair inhibitors in combination with DNA-damaging drugs\nThis study explores the anticancer activities of DNA-damaging drugs and inhibitors of DNA damage repair, both as single agents and in combinations. Complex tumor spheroids comprised of malignant cells, endothelial cells and mesenchymal stem cells served as an in vitro model for human solid tumors. This model system incorporates physiologically relevant features and patient-derived or established malignant cell lines with clinically relevant genetic alterations from many tumor types. Twenty-six patient-derived or established malignant cell lines were evaluated representing sarcoma, melanoma, small cell lung cancer (SCLC), non-small cell lung cancer (NSCLC), as well as bladder, ovarian and pancreatic cancers. The concentration ranges selected for each drug and investigational agent were based upon clinically achievable concentrations if the clinical Cmax of the agent was known.\nCompounds. The drugs and compounds olaparib (NSC753686), talazoparib (NSC767125), berzosertib (NSC777718), elimusertib (NSC800525), nedisertib (NSC802822), VX-984 (NSC792969), AZD-1390 (NSC803789), temozolomide (NSC362856), topotecan (NSC609699), trabectedin (NSC813783), staurosporine (NSC755774), and gemcitabine (NSC613327) were obtained from the National Cancer Institute (NCI) Developmental Therapeutics Program Chemical Repository. The FDA-approved anticancer drug set is available from the Developmental Therapeutics Program at https://dtp.cancer.gov/organization/dscb/obtaining/available_plates.htm. […] The stock solutions were prepared in dimethyl sulfoxide (DMSO, Sigma-Aldrich, St. Louis, MO, cat. D2650) at 400-fold the tested concentration and stored at -70 degrees C. Prior to their use, the stock solutions were diluted in fresh medium and the final DMSO concentration in the assay was 0.25% (v/v). All drugs and investigational agents were tested over a range starting from a high concentration at or near the clinical Cmax and decreasing in half-log increments. If the clinical Cmax for an agent had not been determined, the highest concentration tested was 10 microM.\nCell Lines. The patient-derived cancer cell (PDC) lines: 156681-154-R-J1-PDC, 283228-195-R-J1-PDC, 287954-098-R-J1-PDC, 292921-168-R-J2-PDC, 349418-098-R-PDC, 425362-245-T-J1-PDC, 556581-035-R-J1-PDC, and BL0293-F563-PDC were received from the NCI Patient-Derived Models Repository (PDMR, https://pdmr.cancer.gov). The established cell lines HS-SY-2 (RRID:CVCL_8719), MPNST, and SYO-1 (RRID:CVCL_7146) were obtained from the Sloan Kettering Institute. The alveolar soft parts sarcoma cell line ASPS-1 (RRID:CVCL_S738) was established at the NCI and grown from internal seed stocks. The following established cell lines were purchased from the American Type Culture Collection (ATCC, Manassas, VA): G-401 (ATCC, cat. CRL-1441, RRID:CVCL_0270), SW982 (ATCC, cat. HTB-93, RRID:CVCL_1734), VA-ES-BJ (ATCC, cat. CRL-2138, RRID:CVCL_1785), NCI-H719 (ATCC, cat. CRL-5837, RRID:CVCL_1582), NCI-H196 (ATCC, cat. CRL-5823, RRID:CVCL_1509), NCI-H841 (ATCC, cat. CRL-5845, RRID:CVCL_1595), NCI-H1618 (ATCC, cat. CRL-5879, RRID:CVCL_1480), NCI-H1876 (ATCC, cat. CRL-5902, RRID:CVCL_1503), DMS 114 (ATCC, cat. CRL-2066; RRID:CVCL_1174), NCI-H211 (ATCC, cat. CRL-5824; RRID:CVCL_1529), and SW 1271 (ATCC, cat. CRL-2177, RRID:CVCL_1716). The small cell lung cancer cell line COR-L88 was purchased from Sigma-Aldrich (cat. 92031917-1VL, RRID:CVCL_1141). The non-small cell lung cancer cell lines NCI-H226 (RRID:CVCL_1544) and NCI-H322M (RRID:CVCL_1557) were established at the NCI and grown from internal seed stocks. Pooled donor human umbilical vein endothelial cells (HUVEC, Lonza, cat. CC-2519) and human mesenchymal stem cells (hMSC, Lonza, cat. PT-2501) were purchased from Lonza (Walkersville, MD).\nCell Culture. All cells were maintained in an incubator at 37 degrees C and 5% CO2 with 95% humidity. […]", "note": "“And” between values parts separate entries of the source, which are not always exact repeats. Identical values can stand only once.", "data": [{"compound": "Cn1nnc2c(C(N)=O)ncn2c1=O", "values": [{"measurement": "viability, T/C", "setting": "compound 1 µM", "value": "101% [middle of 10 runs]"}, {"measurement": "viability, T/C", "setting": "compound 3.16 µM", "value": "101% [middle of 9 runs]"}, {"measurement": "viability, T/C", "setting": "compound 10 µM", "value": "106% [middle of 10 runs]"}, {"measurement": "viability, T/C", "setting": "compound 31.6 µM", "value": "106% [middle of 10 runs]"}, {"measurement": "IC50", "setting": "compound alone, run of 10/17/2019", "value": "> 100000", "unit": "nM"}]}, {"compound": "Cc1cc(C)c(CNC(=O)c2cc(-c3ccc(CN4CCOCC4)cc3)cc3c2cnn3C2CCCC2)c(=O)[nH]1", "values": [{"measurement": "viability, T/C", "setting": "compound 0.0316 µM", "value": "99.2% and 94.7% and 96.4%"}, {"measurement": "viability, T/C", "setting": "compound 0.1 µM", "value": "104% and 96.8% and 102%"}, {"measurement": "viability, T/C", "setting": "compound 0.316 µM", "value": "103% and 113% and 108%"}, {"measurement": "viability, T/C", "setting": "compound 1 µM", "value": "116% and 115% (2×)"}, {"measurement": "viability, T/C", "setting": "compound 3.16 µM", "value": "106% and 110% and 103%"}, {"measurement": "viability, T/C", "setting": "compound 10 µM", "value": "62.3% and 78% and 72.8%"}, {"measurement": "IC50", "setting": "curve of compound", "value": "> 10000", "unit": "nM"}]}, {"compound": "COc1cc(C)[nH]c(=O)c1CN1CCc2c(Cl)cc(C(OC)C3COC3)c(Cl)c2C1=O", "note": "(centres undefined)", "values": [{"measurement": "viability, T/C", "setting": "compound 0.0316 µM", "value": "99.2% and 104% and 106%"}, {"measurement": "viability, T/C", "setting": "compound 0.1 µM", "value": "92.3% and 96.3% and 96.5%"}, {"measurement": "viability, T/C", "setting": "compound 0.316 µM", "value": "84.5% and 87.3% and 86.1%"}, {"measurement": "viability, T/C", "setting": "compound 1 µM", "value": "78% and 79.3% and 78.8%"}, {"measurement": "viability, T/C", "setting": "compound 3.16 µM", "value": "72.8% and 77.8% and 73.3%"}, {"measurement": "viability, T/C", "setting": "compound 10 µM", "value": "72.2% and 72.6% and 72.4%"}, {"measurement": "IC50", "setting": "curve of compound", "value": "> 10000", "unit": "nM"}]}, {"compound": "Cc1sc2c(c1C)C(c1ccc(Cl)cc1)=NC(CC(=O)Nc1ccc(O)cc1)c1nnc(C)n1-2", "note": "(centres undefined) + Cn1nnc2c(C(N)=O)ncn2c1=O", "values": [{"measurement": "IC50", "setting": "curve of first compound, second compound 1 µM", "value": 158, "unit": "nM"}, {"measurement": "IC50", "setting": "curve of first compound, second compound 3.16 µM", "value": 194, "unit": "nM"}, {"measurement": "IC50", "setting": "curve of first compound, second compound 10 µM", "value": 170, "unit": "nM"}, {"measurement": "IC50", "setting": "curve of first compound, second compound 31.6 µM", "value": 167, "unit": "nM"}, {"measurement": "IC50", "setting": "curve of first compound, second compound 100 µM", "value": 116, "unit": "nM"}, {"measurement": "viability, T/C", "setting": "second compound 1 µM, first compound 0.00949 µM", "value": 98.8, "unit": "%"}, {"measurement": "viability, T/C", "setting": "second compound 1 µM, first compound 0.03 µM", "value": 101, "unit": "%"}, {"measurement": "viability, T/C", "setting": "second compound 1 µM, first compound 0.0949 µM", "value": 64.5, "unit": "%"}, {"measurement": "viability, T/C", "setting": "second compound 1 µM, first compound 0.3 µM", "value": 29.9, "unit": "%"}, {"measurement": "viability, T/C", "setting": "second compound 1 µM, first compound 0.949 µM", "value": 11.3, "unit": "%"}, {"measurement": "viability, T/C", "setting": "second compound 1 µM, first compound 3 µM", "value": 6.69, "unit": "%"}, {"measurement": "viability, T/C", "setting": "second compound 3.16 µM, first compound 0.00949 µM", "value": 104, "unit": "%"}, {"measurement": "viability, T/C", "setting": "second compound 3.16 µM, first compound 0.03 µM", "value": 103, "unit": "%"}, {"measurement": "viability, T/C", "setting": "second compound 3.16 µM, first compound 0.0949 µM", "value": 81.4, "unit": "%"}, {"measurement": "viability, T/C", "setting": "second compound 3.16 µM, first compound 0.3 µM", "value": 30.7, "unit": "%"}, {"measurement": "viability, T/C", "setting": "second compound 3.16 µM, first compound 0.949 µM", "value": 10.7, "unit": "%"}, {"measurement": "viability, T/C", "setting": "second compound 3.16 µM, first compound 3 µM", "value": 6.68, "unit": "%"}, {"measurement": "viability, T/C", "setting": "second compound 10 µM, first compound 0.00949 µM", "value": 102, "unit": "%"}, {"measurement": "viability, T/C", "setting": "second compound 10 µM, first compound 0.03 µM", "value": 108, "unit": "%"}, {"measurement": "viability, T/C", "setting": "second compound 10 µM, first compound 0.0949 µM", "value": 71.6, "unit": "%"}, {"measurement": "viability, T/C", "setting": "second compound 10 µM, first compound 0.3 µM", "value": 28.1, "unit": "%"}, {"measurement": "viability, T/C", "setting": "second compound 10 µM, first compound 0.949 µM", "value": 10.7, "unit": "%"}, {"measurement": "viability, T/C", "setting": "second compound 10 µM, first compound 3 µM", "value": 4.92, "unit": "%"}, {"measurement": "viability, T/C", "setting": "second compound 31.6 µM, first compound 0.00949 µM", "value": 114, "unit": "%"}, {"measurement": "viability, T/C", "setting": "second compound 31.6 µM, first compound 0.03 µM", "value": 100, "unit": "%"}, {"measurement": "viability, T/C", "setting": "second compound 31.6 µM, first compound 0.0949 µM", "value": 71, "unit": "%"}, {"measurement": "viability, T/C", "setting": "second compound 31.6 µM, first compound 0.3 µM", "value": 28.6, "unit": "%"}, {"measurement": "viability, T/C", "setting": "second compound 31.6 µM, first compound 0.949 µM", "value": 9.45, "unit": "%"}, {"measurement": "viability, T/C", "setting": "second compound 31.6 µM, first compound 3 µM", "value": 4.67, "unit": "%"}, {"measurement": "viability, T/C", "setting": "second compound 100 µM, first compound 0.00949 µM", "value": 93.9, "unit": "%"}, {"measurement": "viability, T/C", "setting": "second compound 100 µM, first compound 0.03 µM", "value": 93, "unit": "%"}, {"measurement": "viability, T/C", "setting": "second compound 100 µM, first compound 0.0949 µM", "value": 55.1, "unit": "%"}, {"measurement": "viability, T/C", "setting": "second compound 100 µM, first compound 0.3 µM", "value": 18.9, "unit": "%"}, {"measurement": "viability, T/C", "setting": "second compound 100 µM, first compound 0.949 µM", "value": 6.62, "unit": "%"}, {"measurement": "viability, T/C", "setting": "second compound 100 µM, first compound 3 µM", "value": 2.68, "unit": "%"}]}]}
